Data taken from a melting point compilation (Tetko et al.).

Compared with `O=c1c2ccccc2[nH]c(=S)n1Cc1ccccc1`, `Oc1ccc(Cl)c2ccccc12` is lower in melting point: 256 to 257 °C for the first, 117 to 120 °C for the second.

First: Cc1cc(C(N)=O)ccc1Br
Second: CC(=O)Nc1ccc(Br)cc1C
The melting point of the first is higher: 180 °C for the first, 160 to 163 °C for the second.

Compared with `CCOC(=O)N1CCN(C(=O)OCC)CC1`, `CCOC(=O)c1ccc(OC(C)=O)cc1` is lower in melting point: 47 °C for the first, 34 °C for the second.

Going from `CCC1(O)c2ccccc2C1C` (stereo not drawn) to `CC(=O)Nc1ccccc1Br`, the melting point rises from 52 °C to 99 °C.

Compared with `O=C(O)c1cnccc1C(F)(F)F`, `Oc1cc(C(F)(F)F)nc2c(Cl)cccc12` is lower in melting point: 150 °C for the first, 139 °C for the second.

First: CC1=NN(CN2CCCCC2)C(=O)/C1=N\Nc1cccnc1
Second: O=C(O)c1ccc(CN2CCCC2)cc1
The melting point of the first is lower: 177 °C for the first, 184 to 185 °C for the second.

Going from `Cc1ccc(O[Si]23OCCN(CCO2)CCO3)cc1` to `COc1ccc2c(c1)C(=O)CC(c1ccccc1)O2` (stereo not drawn), the melting point falls from 188 °C to 142 °C.

Compared with `CC(C)n1nnc2cc(C(=O)Cl)ccc21`, `CC(=O)c1ccc(C)nc1` is lower in melting point: 140 to 143 °C for the first, 17.6 °C for the second.

Compared with `CC(=O)NC(=Cc1ccccc1)C(=O)O`, `CNc1ccccc1` is lower in melting point: 192 °C for the first, -57 °C for the second.

Compared with `Fc1nc(Cl)c2[nH]cnc2n1`, `COc1cc(F)c(C#N)cc1F` is lower in melting point: 162 to 163 °C for the first, 91 °C for the second.

First: CC(C)(C)C(O)(CCc1ccc(Cl)cc1)Cn1cncn1 (stereo not drawn)
Second: CNCc1ccc(-c2ncccn2)cc1
The melting point of the first is higher: 105 °C for the first, 49.5 to 54.9 °C for the second.

Compared with `O=[N+]([O-])c1cnc(Br)s1`, `O=[N+]([O-])c1cc2nccnc2cc1Br` is higher in melting point: 88 °C for the first, 221 to 227 °C for the second.

Compared with `COc1ccc2c(c1)CC(CCC(=O)O)(CCC(=O)O)C2=O`, `COC(=O)C1=C(C)c2ccccc2C1` is lower in melting point: 151 °C for the first, 66 °C for the second.

First: CC12CCC(=O)CC1CCC13OC14CCC(=O)C4(C)CCC23 (stereo not drawn)
Second: COC(=O)CCC(C)C1CCC2C3C(O)C(O)C4CC(OC(C)=O)CCC4(C)C3CC(OC(C)=O)C12C (stereo not drawn)
The melting point of the first is lower: 171 to 173 °C for the first, 175 to 177 °C for the second.

Compared with `CCCCCCCCNCCCCCCCC`, `CCCCCCO` is lower in melting point: 35.5 °C for the first, -44.6 °C for the second.

First: O=[N+]([O-])c1ccc(Oc2ccc(N=C=S)cc2)cc1
Second: CCOC(=O)C=Cc1ccc(N=[N+]([O-])c2ccc(C=CC(=O)OCC)cc2)cc1
The melting point of the first is lower: 122 to 124 °C for the first, 141 °C for the second.

Going from `COc1c(Cl)cc([N+](=O)[O-])c(OC)c1C(=O)O` to `COC(=O)CCc1c([N+](=O)[O-])cc2c(c1[N+](=O)[O-])NC(=O)CC2`, the melting point rises from 131 °C to 166 °C.

Compared with `CCC1(CC)C(=O)NC(=O)N(C)C1=O`, `O=C1NC(=O)C(Cl)C(=O)N1` is higher in melting point: 155 °C for the first, 320 °C for the second.

First: c1cnc2c(c1)OCCN2
Second: Oc1ccc(Br)cn1
The melting point of the first is lower: 85 to 86 °C for the first, 180 °C for the second.

Compared with `O=S(=O)(N(c1ccccc1)S(=O)(=O)C(F)(F)F)C(F)(F)F`, `N#CCS(=O)(=O)c1ccccc1` is higher in melting point: 99 to 105 °C for the first, 112 °C for the second.

First: CN1CCCN(CC#N)CCN(CC#N)CCCN(CC#N)CC1
Second: c1ccc2c(c1)nnn2C1CCCCC1
The melting point of the first is lower: 88 °C for the first, 104 °C for the second.

Compared with `CC1OC(Oc2ccc([N+](=O)[O-])cc2)C(O)C(O)C1O` (stereo not drawn), `O=[N+]([O-])c1cc(O)ccc1I` is lower in melting point: 191 to 192 °C for the first, 153 to 159 °C for the second.

Going from `CC(=O)c1csc(-c2ccccc2)n1` to `ClCCc1ccccc1`, the melting point falls from 84 °C to -60 °C.

Compared with `COC(=O)c1nn2ccccc2c1C(=O)OC`, `COc1ccc(-c2nnc3n2NC(c2ccc(O)c(OC)c2)S3)cc1` (stereo not drawn) is higher in melting point: 72 to 74 °C for the first, 173 °C for the second.

Compared with `CSc1sc(C(=O)O)c(-c2cccc(Cl)c2)c1C#N`, `COc1ccccc1-c1nc(CCl)no1` is lower in melting point: 209 to 211 °C for the first, 66 to 67 °C for the second.

Going from `CCC1OC(=O)C(C)C(OC2OC(C)CC(N(C)C)C2O)C(C)CC(C)C(=O)C=CC1(C)O` (stereo not drawn) to `NC(=S)c1ccno1`, the melting point falls from 196 °C to 163 °C.

`BrCc1cc(Br)cc(Br)c1` showed a melting point of 94 °C.
